Results on three molecules are retold here after US5162354A, “3-halo-5-halomethyl-2-oxazolidinones and their use as microbicides” (Buckman Laboratories International, Inc., priority 1991, dated 1992).

SMILES strings stand for the structures. Values after ≈ are worked out from the molar mass of the structure shown. Like-named read-outs stand apart in the source and are kept apart here.

Holding throughout (format): cell-based
One assay has as its system Chlorella pyrenoidosa. Briefly: Growth inhibiting activity against algae in Difco Algae Broth (Chlorella pyrenoidosa). The following applies: Auxenochlorella pyrenoidosa, 672 h. The method, then:
(§1) The growth inhibiting activity of the method of the invention against the three algae Chlorella pyrenoidosa, Chlorococcum hypnosporum and Phormidium inundatum was evaluated in Difco Algae Broth, the content of which was as follows:
(§2) Forty-gram portions of the algae medium were added to 250 mL Pyrex Erlenmeyer flasks fitted with loose metal caps and then sterilized. Each of the following substances was then added to the flasks in the order listed:
(§3) 1. Sterile algae medium as required to bring the total weight of the contents of each flask to 50 grams, after allowing for all subsequent additions specified below.
(§4) 2. A solution of one of compounds 1-4 or of a control agent to be evaluated in each test, to give the concentration desired in parts per million by weight.
(§5) 3. Chlorella pyrenoidosa, Chlorococcum hypnosporum and Phormidium inundatum in amounts sufficient to give excellent growth in the controls after 14 days. This was achieved by adding 1 milliliter of a 14 day old culture having luxuriant growth. The Chlorella pyrenoidosa culture was obtained from American Type Culture Collection No. 7516; Chlorococcum hypnosporum, from the University of TX at Austin; and Phormidium inundatum, WI No. 1093, from the University of WA.
(§6) As a control experiment, WSCP was used as a positive control agent. WSCP is a known toxicant which kills C. pyrenoidosa at 2 ppm, C. hypnosporum at 2ppm, and P. inundatum at 10 ppm. Control experiments were also carried out where no toxicants were employed. In the algicidal tests, the growth of algae in the nutrient medium is lush green and can be seen with the naked eye. Because the minimum inhibitory concentrations of the compounds in this example are those which result in complete inhibition, evaluation of the test results is not subjective.
(§7) After the inoculum of the test algae was added, the flasks were incubated at a temperature of 28°±2° C. under fluorescent illumination of 250 foot-candle intensity (8 hours light, 16 hours darkness) for a period adequate for growth in the controls (those portions of medium which contained no toxicant). Observations of growth were made at 7-day intervals. Minimum inhibitory concentrations are those that prevented complete growth after 28 days.

The test system of a further assay is Aspergillus niger. Briefly: Growth inhibiting activity on the fungus Aspergillus niger. To be noted: Aspergillus niger pH 6.0; completely prevented growth; read-out: Minimum inhibitory concentration against fungi. Here is the method:
The microorganism growth inhibiting activity of compounds 1-4 on the fungus Aspergillus niger was evaluated. The method is described in U.S. Pat. No. 4,945,109, column 5 beginning at line 47 to column 6, line 33. The disclosure of U.S. Pat. No. 4,945,109 is incorporated herein by reference.

Another assay has as its system Chlorococcum hypnosporum. Briefly: Growth inhibiting activity against algae in Difco Algae Broth (Chlorococcum hypnosporum). The following applies: 672 h. The method, then: as §1, §2, §3, §4, §5, §6, §7
Another assay deals with Enterobacter aerogenes. Briefly: Basal salts method, minimum inhibitory concentration against Enterobacter aerogenes. The following applies: Klebsiella aerogenes, at least 80% kill. Here is the method:
Compounds 1-4 of Examples 3-6 of the present invention were tested by the basal salts method described in U.S. Pat. No. 2,881,070 at column 5, beginning at line 12 and extending to column 6, line 53. […] The minimum inhibitory concentrations are those in which a percentage kill of at least 80% is obtained.

The next assay relates to Phormidium inundatum. Briefly: Growth inhibiting activity against algae in Difco Algae Broth (Phormidium inundatum). The following applies: 672 h. Here is the method:
as §1, §2, §3, §4, §5, §6, §7

Setting [1] is: pH 7, read-out: Minimum inhibitory concentration against algae.

With `O=C1OC(CCl)CN1Cl` (stereo not drawn) [Compound 2, 3-Chloro-5-chloromethyl-2-oxazolidinone], the MIC stood at 1 µg/mL (≈ 5.88 µM) with Chlorella pyrenoidosa (setting [1]); 128 µg/mL (≈ 753 µM) in the assay with Aspergillus niger; 1 µg/mL (≈ 5.88 µM) in the assay with Chlorococcum hypnosporum (setting [1]); 8 µg/mL in the assay with Enterobacter aerogenes (pH 6.0); 10 µg/mL in the assay on Enterobacter aerogenes (pH 8.0); 1 µg/mL (≈ 5.88 µM) with Phormidium inundatum (setting [1]).

For `O=C1OC(CBr)CN1Cl` (stereo not drawn) [Compound 4, 3-Chloro-5-bromomethyl-2-oxazolidinone], the MIC in the assay with Chlorella pyrenoidosa (setting [1]) amounted to 4 µg/mL (≈ 18.7 µM); with Aspergillus niger it was 100 µg/mL (≈ 466 µM); in the assay with Chlorococcum hypnosporum (setting [1]), 8 µg/mL (≈ 37.3 µM); with Enterobacter aerogenes (pH 6.0), 10 µg/mL; in the assay with Enterobacter aerogenes (pH 8.0), 20 µg/mL; in the assay with Phormidium inundatum (setting [1]), 8 µg/mL (≈ 37.3 µM).

Consider `O=C1OC(CBr)CN1Br` (stereo not drawn) [Compound 3, 3-Bromo-5-bromomethyl-2-oxazolidinone], for which the MIC with Chlorella pyrenoidosa (C. pyrenoidosa, pH 7, 28 days, read-out: Minimum inhibitory concentration against algae) stood at 2 µg/mL (≈ 7.73 µM); in the assay with Aspergillus niger, 100 µg/mL (≈ 386 µM); in the assay on Chlorococcum hypnosporum (C. hypnosporum, pH 7, 28 days, read-out: Minimum inhibitory concentration against algae), 8 µg/mL (≈ 30.9 µM); in the assay on Enterobacter aerogenes (pH 6.0), 2 µg/mL; in the assay on Enterobacter aerogenes (pH 8.0) it was 4 µg/mL; in the assay with Phormidium inundatum (P. inundatum, pH 7, 28 days, read-out: Minimum inhibitory concentration against algae), 2 µg/mL (≈ 7.73 µM).
